Here are results for 1 compound from US20030032183A1, “Stem cell differentiation” (priority 2001, published 2003).

In one assay the test system is embryoid bodies. Description: Immunoperoxidase cytochemistry for insulin in suspended embryoid bodies. The following applies: retinoic acid days 3 to 7; suspension culture; day 32; versus control lacking primary antibody; FIG. 4. Type of assay: cell-based. The method, then:
Embryonic stem cell lines were cultured as described above for Examples 1-10 on gelatin coated Tissue Culture (TC) dishes without Mouse Embryonic Fibroblasts (MEF's) (with 1500 units/ml Lymphocyte Inhibitory Factor (LIF) in media) to remove MEF's from culture. The resulting stem cells were then differentiated as described above (with retinoic acid during treatment during days 3 to 7) except that the formed embryoid bodies were maintained in suspension for the duration of the experiment as opposed to being separated and adhered to TC dishes. All culturing from day 1 forward was performed in 25 millimolar (mM) glucose (high glucose) until after day 19, when it was changed to 5.5 millimolar glucose (physiological glucose).

The next assay relates to embryonic stem cells. Description: RT-PCR analysis of insulin (INS) and amylase (AML) transcripts in embryonic stem cells differentiated with retinoic acid. Type of assay: cell-based. Also on record: key to Abundance of Insulin RT-PCR Product (INS) / Abundance of Amylase RT-PCR Product (AML): +: Indicates relative abundance; −: No RT-PCR band observed. As to the method: Embryonic stem cell lines were cultured and spilt 1:8 every three days for 4 passages on gelatin coated Tissue Culture (TC) dishes without Mouse Embryonic Fibroblasts (MEF's) (with 1500 units/ml Lymphocyte Inhibitory Factor (LIF) in media) to remove MEF's from culture. The resulting stem cells were then differentiated as follows:
On day 1, the stem cells were treated with trypsin to break up some aggregation and then suspended in 1% Fetal Calf Serum (FCS) Media (without LIF). The stem cells were then allowed to self-aggregate into embryoid bodies in suspension culture in bacterial petri dishes. On day 3, the cells were given a fresh media change and then split among two bacterial petri dishes (sample and control). A solution containing 1 μM retinoic acid was intermixed with the sample and both the control (no retinoic acid) and the sample were allowed to sit at 37° C. Fresh media were supplied at day 5 (with fresh 1 μM retinoic acid for the treated sample). At day 7, fresh media was supplied for both, with no retinoic acid (retinoic acid only present from days 3 to 7).
Fresh media was supplied again on day 9. On […] the cells were again trypsinized and then placed into TC dishes with 10% FCS media (no LIF). Small aliquots were taken at various times (days 14, 17, 19, 22, and 25) from the cultures and were saved for later analysis by reverse transcriptase polymerase chain reaction (RT-PCR).
On day 14, the media was changed for the two groups of cells (10% FCS) in each population (control and sample). On day 17, the media was changed again.
On day 19, adherent cells were gently blown off by pipetting, then trypsinized and resuspended in 10% FCS in bacterial petri dish suspension cultures. On days 22 and 25, the remaining cells were collected and a portion retained for RT-PCR analysis.
All culturing from day 1 forward was performed in 25 millimolar (mM) glucose (high glucose) until after day 19, when it was changed to 5.5 millimolar glucose (lower glucose) The glucose concentrations ranged from 30 mM to 10 mM on the high end and 0.5 mM-5 mM on the low end.
Total RNA from each aliquot collected above was purified as instructed with a Qiagen RNeasy® Mini purification kit (obtained commercially from Qiagen Inc.). The presence of specific RNA transcripts (i.e. insulin) was determined by RT-PCR using gene specific oligonucleotide primers as instructed with a Qiagen® OneStep RT-PCR kit (obtained commercially from Qiagen Inc.). Total RNA was prepared from cultures of differentiating ES cells. RT-PCR analyses were performed with appropriate oligonucleotide primers (INS-insulin) or the pancreatic specific product amylase (AML).

[1] abbreviates: Ex. 10, lane 5, 1 μM retinoic acid days 3 to 7, day 25, glucose 5.5 mM.

In the case of `CC1=C(/C=C/C(C)=C/C=C/C(C)=C/C(=O)O)C(C)(C)CCC1` [retinoic acid], the “Insulin protein in embryoid bodies by specific antibody staining” value with embryoid bodies is given as “produce insulin”. The “Abundance of Insulin RT-PCR Product (INS)” value in the assay with embryonic stem cells (Ex. 9, lane 4, 1 μM retinoic acid days 3 to 7, day 22, glucose 5.5 mM) was “+”; with embryonic stem cells (setting [1]) it was “−”. The “Abundance of Amylase RT-PCR Product (AML)” value in the assay with embryonic stem cells (setting [1]) is reported as “−”. The “Formation of insulin-producing cells (correctly sized insulin-specific RT-PCR band)” value in the assay with embryonic stem cells (stem cells treated with retinoic acid, aliquots at days 14, 17, 19 and 22, FIG. 1) is listed as “insulin-producing cells resulted”.
